Converted amounts (≈) assume the structure as drawn.
Columns and labels:
Aspergillus niger [1] = experiment: Antifungal activity against Aspergillus niger ATCC 16404 assessed as radial growth inhibition at 64 ug/ml after 5 to 7 days relative to control; format: functional; conditions: read-out: GI
[2] = Antifungal activity against Colletotrichum coccodes MC1 assessed as radial growth inhibition at 64 ug/ml after 5 to 7 days relative to control; format: functional
[3] = Antifungal activity against Fusarium sambucinum MF1 assessed as radial growth inhibition at 64 ug/ml after 5 to 7 days relative to control; format: functional
[4] = Antifungal activity against Fusarium oxysporum MF5 assessed as radial growth inhibition at 64 ug/ml after 5 to 7 days relative to control; format: functional
Candida albicans [5] = experiment: Antifungal activity against Candida albicans ATCC 90028 assessed as growth inhibition at 0.125 ug/ml after 48 hrs by broth microdilution method relative to control; format: functional; conditions: ATCC 90028, 48 h, read-out: GI
Candida albicans [6] = experiment: Antifungal activity against Candida albicans ATCC 90028 assessed as growth inhibition at 2 ug/ml after 48 hrs by broth microdilution method relative to control; format: functional; conditions: ATCC 90028, 48 h, read-out: GI
Candida albicans [7] = experiment: Antifungal activity against Candida albicans ATCC 90028 assessed as growth inhibition at 0.5 ug/ml after 48 hrs by broth microdilution method relative to control; format: functional; conditions: ATCC 90028, 48 h, read-out: GI
Candida albicans [8] = experiment: Antifungal activity against Candida albicans ATCC 90028 assessed as growth inhibition at 4 ug/ml after 48 hrs by broth microdilution method relative to control; format: functional; conditions: ATCC 90028, 48 h, read-out: GI
Candida albicans [9] = experiment: Antifungal activity against Candida albicans ATCC 90028 assessed as growth inhibition at 0.0313 ug/ml after 48 hrs by broth microdilution method relative to control; format: functional; conditions: ATCC 90028, 48 h, read-out: GI
Candida albicans [10] = experiment: Antifungal activity against Candida albicans ATCC 90028 assessed as growth inhibition at 1 ug/ml after 48 hrs by broth microdilution method relative to control; format: functional; conditions: ATCC 90028, 48 h, read-out: GI
Candida albicans [11] = experiment: Antifungal activity against Candida albicans ATCC 90028 assessed as growth inhibition at 0.25 ug/ml after 48 hrs by broth microdilution method relative to control; format: functional; conditions: ATCC 90028, 48 h, read-out: GI
Candida albicans [12] = experiment: Antifungal activity against Candida albicans ATCC 90028 assessed as growth inhibition at 8 ug/ml after 48 hrs by broth microdilution method relative to control; format: functional; conditions: ATCC 90028, 48 h, read-out: GI
Candida albicans [13] = experiment: Antifungal activity against Candida albicans ATCC 90028 assessed as growth inhibition at 0.0625 ug/ml after 48 hrs by broth microdilution method relative to control; format: functional; conditions: ATCC 90028, 48 h, read-out: GI
Candida albicans [14] = experiment: Antifungal activity against Candida albicans ATCC 90028 assessed as growth inhibition at 16 ug/ml after 48 hrs by broth microdilution method relative to control; format: functional; conditions: ATCC 90028, 48 h, read-out: GI
[15] = Toxicity in last instar larval stage of Galleria mellonella assessed as decrease in survival at 0.33% after 96 hrs
[16] = Antifungal activity against Fusarium sambucinum MF1 assessed as radial growth inhibition at 16 ug/ml after 5 to 7 days relative to control; format: functional
Aspergillus niger [17] = experiment: Antifungal activity against Aspergillus niger ATCC 16404 assessed as radial growth inhibition at 16 ug/ml after 5 to 7 days relative to control; format: functional; conditions: read-out: GI
[18] = Antifungal activity against Colletotrichum coccodes MC1 assessed as radial growth inhibition at 16 ug/ml after 5 to 7 days relative to control; format: functional
[19] = Antifungal activity against Fusarium oxysporum MF5 assessed as radial growth inhibition at 16 ug/ml after 5 to 7 days relative to control; format: functional
Aspergillus niger [20] = experiment: Antifungal activity against Aspergillus niger ATCC 16404 assessed as radial growth inhibition at 32 ug/ml after 5 to 7 days relative to control; format: functional; conditions: read-out: GI
[21] = Antifungal activity against Fusarium sambucinum MF1 assessed as radial growth inhibition at 32 ug/ml after 5 to 7 days relative to control; format: functional
Candida albicans [22] = experiment: Fungicidal activity against Candida albicans ATCC 90028 after 48 hrs by broth microdilution method; format: functional; conditions: ATCC 90028, 48 h
[23] = Antifungal activity against Fusarium oxysporum MF5 assessed as radial growth inhibition at 32 ug/ml after 5 to 7 days relative to control; format: functional
Candida albicans [24] = experiment: Antifungal activity against Candida albicans ATCC 90028 assessed as growth inhibition after 48 hrs by broth microdilution method; format: functional; conditions: ATCC 90028, 48 h
[25] = Antifungal activity against Colletotrichum coccodes MC1 assessed as radial growth inhibition at 32 ug/ml after 5 to 7 days relative to control; format: functional
[26] = Toxicity in last instar larval stage of Galleria mellonella assessed as survival at 16 ug/ml after 96 hrs
Candida albicans [27] = experiment: Antifungal activity against Candida albicans ATCC 90028 after 18 to 48 hrs in presence of 40 ug/ml fluconazole by checkerboard assay; format: functional
Candida albicans [28] = experiment: Antifungal activity against Candida albicans ATCC 90028 after 18 to 48 hrs in presence of 80 ug/ml fluconazole by checkerboard assay; format: functional
Candida albicans [29] = experiment: Antifungal activity against Candida albicans ATCC 90028 assessed as growth inhibition after 7 days in presence of osmotic protector 0.8 M sorbitol by broth microdilution method; format: functional; conditions: ATCC 90028, 168 h
Candida albicans [30] = experiment: Antifungal activity against Candida albicans ATCC 90028 assessed as growth inhibition after 18 to 48 hrs in presence of 1.25 ug/ml fluconazole by checkerboard assay; format: functional
Candida albicans [31] = experiment: Antifungal activity against Candida albicans ATCC 90028 assessed as fractional inhibitory concentration index after 18 to 48 hrs in presence of fluconazole by checkerboard assay; format: functional
Candida albicans [32] = experiment: Fungicidal activity against Candida albicans ATCC 90028 at MIC after 7 days in presence of osmotic protector 0.8 M sorbitol by broth microdilution method; format: functional
Candida albicans [33] = experiment: Antifungal activity against Candida albicans ATCC 90028 assessed as growth inhibition after 48 hrs in presence of osmotic protector 0.8 M sorbitol by broth microdilution method; format: functional; conditions: ATCC 90028, 48 h
Candida albicans [34] = experiment: Fungicidal activity against Candida albicans ATCC 90028 at MIC after 48 hrs in presence of osmotic protector 0.8 M sorbitol by broth microdilution method; format: functional
Candida albicans [35] = experiment: Antifungal activity against Candida albicans ATCC 90028 assessed as fractional inhibitory concentration after 18 to 48 hrs in presence of fluconazole by checkerboard assay; format: functional
Candida albicans [36] = experiment: Antifungal activity against Candida albicans ATCC 90028 after 18 to 48 hrs in presence of 20 ug/ml fluconazole by checkerboard assay; format: functional
Candida albicans [37] = experiment: Antifungal activity against Candida albicans ATCC 90028 after 18 to 48 hrs in presence of 2.5 ug/ml fluconazole by checkerboard assay; format: functional
Candida albicans [38] = experiment: Antifungal activity against Candida albicans ATCC 90028 after 18 to 48 hrs in presence of 1.25 ug/ml fluconazole by checkerboard assay; format: functional
Candida albicans [39] = experiment: Antifungal activity against Candida albicans ATCC 90028 after 18 to 48 hrs in presence of 5 ug/ml fluconazole by checkerboard assay; format: functional
Candida albicans [40] = experiment: Antifungal activity against Candida albicans ATCC 90028 after 18 to 48 hrs in presence of 10 ug/ml fluconazole by checkerboard assay; format: functional

Row | SMILES | inhibition of growth at 64 µg/mL (Aspergillus niger [1]) [%] | growth inhibition (GI) [2] [%] | growth inhibition (GI) [3] [%] | growth inhibition (GI) [4] [%] | inhibition of growth at 0.125 µg/mL (Candida albicans [5]) [%] | inhibition of growth at 2 µg/mL (Candida albicans [6]) [%] | inhibition of growth at 0.5 µg/mL (Candida albicans [7]) [%] | inhibition of growth at 4 µg/mL (Candida albicans [8]) [%] | inhibition of growth at 0.0313 µg/mL (Candida albicans [9]) [%] | inhibition of growth at 1 µg/mL (Candida albicans [10]) [%] | inhibition of growth at 0.25 µg/mL (Candida albicans [11]) [%] | inhibition of growth at 8 µg/mL (Candida albicans [12]) [%] | inhibition of growth at 0.0625 µg/mL (Candida albicans [13]) [%] | inhibition of growth at 16 µg/mL (Candida albicans [14]) [%] | further results
1 | Clc1ccc(-c2nnn(CCCSc3nc4ccccc4s3)n2)cc1 | 0 | 36.7 | 5 | 0 | – | – | – | – | – | – | – | – | – | – | –
2 | Cc1ccc(-c2nnn(CCCSc3nc4ccccc4s3)n2)cc1 | 3 | 33.4 | 0 | 0 | 98.8 | 98.6 | 98.7 | 98.9 | 98.8 | 98.9 | 98.6 | 99 | 98.8 | 98.8 | –
3 | C[S+](C)[O-] [DIMETHYL SULFOXIDE] | – | – | – | – | – | – | – | – | – | – | – | – | – | – | Activity [15]: Non-Toxic
4 | O=S(=O)(CCn1nnc(-c2ccc(Cl)cc2)n1)c1ccccc1 | 11.2 | 18.4 | 1.8 | 1.7 | 99.3 | 99.4 | 99.4 | 99.4 | 99 | 99.4 | 99.3 | 99.5 | – | – | –
5 | O=S(=O)(CCn1nnc(-c2ccccc2Cl)n1)c1ccccc1 | 17.1 | 43.4 | 35.6 | 31.2 | 97.8 | 97.9 | 98.2 | 97.8 | 98.6 | 98.2 | 98.1 | 98 | 98.4 | 98.5 | –
6 | O=S(=O)(CCn1nnc(-c2ccccc2)n1)c1ccccc1 | 18.5 | 41.1 | 14.5 | 17.7 | 98.7 | 99 | 98.9 | 98.9 | 99.1 | 99 | 99 | 99.1 | 99 | 99.1 | –
7 | C[C@@H]1[C@H](O)[C@@H](C)/C=C/C=C/C=C/C=C/C=C/C=C/C=C/[C@H](O[C@@H]2O[C@H](C)[C@@H](O)[C@H](N)[C@@H]2O)C[C@@H]2O[C@](O)(C[C@@H](O)C[C@@H](O)[C@H](O)CC[C@@H](O)C[C@@H](O)CC(=O)O[C@H]1C)C[C@H](O)[C@H]2C(=O)O [AMPHOTERICIN B] | – | – | – | – | – | – | – | – | – | – | – | – | – | – | growth inhibition (GI) [16]: 86%; inhibition of growth at 16 µg/mL (Aspergillus niger [17]): 100%; growth inhibition (GI) [18]: 86.7%; growth inhibition (GI) [19]: 77%
8 | Cc1ccc(-c2nnn(CCCSc3nc4ccccc4o3)n2)cc1 | 11.8 | 43.4 | 16 | 0 | – | – | – | – | – | – | – | – | – | – | –
9 | c1ccc(-c2nnn(CCCSc3nc4ccccc4o3)n2)cc1 | 20.6 | 43.4 | 27 | 6 | – | – | – | – | – | – | – | – | – | – | –
10 | Clc1ccccc1-c1nnn(CCCSc2nc3ccccc3s2)n1 | 0 | 16.7 | 5 | 0 | 99 | 98 | 98.6 | 98.7 | 98.8 | 98.7 | 98.7 | 98.6 | 98.9 | 98.8 | –
11 | OC(Cn1cncn1)(Cn1cncn1)c1ccc(F)cc1F [FLUCONAZOLE] | – | – | – | – | – | – | – | – | – | – | – | – | – | – | inhibition of growth at 32 µg/mL (Aspergillus niger [20]): 52.9%; growth inhibition (GI) [21]: 67.7%; MFC (Candida albicans [22]): 0.5 µg/mL (≈ 1.63 µM); growth inhibition (GI) [23]: 17.6%; MIC (Candida albicans [24]): 0.25 µg/mL (≈ 0.816 µM); growth inhibition (GI) [25]: 100%
12 | Clc1ccc(-c2nnn(CCCSc3nc4ccccc4o3)n2)cc1 | 11.8 | 46.7 | 14.5 | 4 | 99.1 | 99.5 | 99.4 | 98.7 | 99 | 99.3 | 99.2 | 99.4 | 99.1 | 99.2 | survival at 96 h [26]: 100%; Activity (Candida albicans [27]): 100%; Activity (Candida albicans [28]): 100%; MIC (Candida albicans [29]): 1 µg/mL; MIC (Candida albicans [30]): 1.25 µg/mL; fractional inhibitory concentration index (FICI) (Candida albicans [31]): 5.08; Activity (Candida albicans [32]): 100%; MIC (Candida albicans [33]): 1 µg/mL; Activity (Candida albicans [34]): 100%; Ratio (Candida albicans [35]): 0.08; Activity (Candida albicans [36]): 98%; Activity (Candida albicans [37]): 100%; Activity (Candida albicans [38]): 100%; Activity (Candida albicans [39]): 99%; Activity (Candida albicans [40]): 99%; MIC (Candida albicans [24]): > 16 µg/mL
13 | c1ccc(-c2nnn(CCCSc3nc4ccccc4s3)n2)cc1 | 4.4 | 23.4 | 13 | 0 | – | – | – | – | – | – | – | – | – | – | –
14 | Clc1ccccc1-c1nnn(CCCSc2nc3ccccc3o2)n1 | 6 | 33.4 | 14.5 | 0 | – | 99.1 | 98.9 | 99.2 | – | 99.1 | – | 99.2 | – | 99.1 | survival at 96 h [26]: 100%; Activity (Candida albicans [27]): 100%; Activity (Candida albicans [28]): 100%; MIC (Candida albicans [29]): 1 µg/mL; MIC (Candida albicans [30]): 1.25 µg/mL; Activity (Candida albicans [32]): 97%; MIC (Candida albicans [33]): 1 µg/mL; Activity (Candida albicans [36]): 100%; Activity (Candida albicans [37]): 100%; Activity (Candida albicans [38]): 100%; Activity (Candida albicans [39]): 100%; Activity (Candida albicans [40]): 100%; MIC (Candida albicans [24]): > 16 µg/mL

Reference: ChEMBL document CHEMBL3856287, “Synthesis of novel tetrazole derivatives and evaluation of their antifungal activity” (Bioorg Med Chem, 2016)
